Measured values from US8563552B2, “Whitening agent and skin external preparation” (Shiseido Company Ltd., priority 2008, dated 2013).

System: Mouse B16 melanoma cells
Test: Melanin production inhibition test
Format: cell-based
Conditions: 72 h; mouse B16 melanoma cells, three days after addition; minimum non-cytotoxic final concentration at which ratio of melanin amount was 80% or less; read-out: Inhibitory effect on melanin production
Experimental: A test for melanin production inhibition by the compounds of the formula (1) was conducted. The test method is as follows.
Melanin Production Inhibition Test
(1) Inoculation of Cells and Addition of Test Substances
Mouse B16 melanoma cells were inoculated in a six well plate at 100,000 cells/well. The next day, test substance solutions (solvent: DMSO) were added.
(2) Cell Proliferation Test
Three days after the addition of the test substance solution, the medium was removed by aspiration. Then 1 ml of EMEM medium containing 10% Alamar Blue solution was added, and a reaction was allowed to proceed at 37° C. After 30 minutes, 100 μL of the reaction mixture was transferred to a 96 well plate and fluorescence was measured at an excitation wavelength of 544 nm and a measurement wavelength of 590 nm. Using the value thus measured as a relative value of cell count, a ratio of the cell count (% cell count) of the test substance-added group to the test substance-absent group (group in which only the solvent was added) was calculated. The higher the % cell count, the lower the cytotoxicity. It was determined that a compound having the % cell count of 80% or more was non-cytotoxic, and that a compound having the % cell count of less than 80% was cytotoxic.
(3) Quantification of Melanin
The cells after the cell proliferation test were washed with PBS three times, and then lysed by addition of 200 μL of 1M NaOH to measure an absorbance at 475 nm. Using the value thus measured as a: value of the melanin amount, a ratio of the melanin amount (%) of the test substance-added group to the test substance-absent group (group in which only the solvent was added) was calculated. The lower the ratio of the melanin amount, the higher the melanin production-inhibitory effect. […] The inhibitory effect on melanin production was evaluated according to the following criteria.
⊚: the minimum concentration for inhibition of melanin production was 1 ppm or less.
◯: the minimum concentration for inhibition of melanin production was more than 1 ppm and 10 ppm or less.

`Cc1cc(C)nc(-n2nc(C)cc2N)n1` [Compound 1] and `Cc1cc(C)nc(-n2nc(C)cc2O)n1` [Compound 11] cannot be ordered by minimal effective concentration: ≤ 1 µg/mL for the first, 1 to 10 µg/mL for the second.

`Cc1cc(N2CCOCC2)nc(-n2nc(C)cc2C)n1` [Compound 2] and `Cc1cc(N2CCOCC2)nc(-n2nc(C)c(C)c2C)n1` [Compound 20] cannot be ordered by minimal effective concentration: ≤ 1 µg/mL for the first, ≤ 1 µg/mL for the second.

`Cc1cc(N)n(-c2ncccn2)n1` [Compound 3] and `Cc1cc(C)n(-c2ncccn2)n1` [Compound 4, 1-(pyrimidin-2-yl)-3,5-dimethylpyrazole] cannot be ordered by minimal effective concentration: 1 to 10 µg/mL for the first, ≤ 1 µg/mL for the second.

`Cc1cc(S)nc(-n2nc(C)cc2C)n1` [Compound 6] and `CNc1cc(C)nc(-n2nc(C)cc2C)n1` [Compound 7] cannot be ordered by minimal effective concentration: ≤ 1 µg/mL for the first, ≤ 1 µg/mL for the second.

`CCc1c(C)nn(-c2nc(C)cc(C)n2)c1O` [Compound 8] and `Cc1cc(C)nc(-n2nccc2C)n1` [Compound 17] cannot be ordered by minimal effective concentration: ≤ 1 µg/mL for the first, ≤ 1 µg/mL for the second.

`Cc1cc(C)nc(-n2cccn2)n1` [Compound 12, 2-(pyrazol-1-yl)-4,6-dimethylpyrimidine] and `Cc1cc(C)nc(-n2ccc(C)n2)n1` [Compound 18] cannot be ordered by minimal effective concentration: 1 to 10 µg/mL for the first, ≤ 1 µg/mL for the second.

`COc1cc(OC)nc(-n2nc(C)cc2C)n1` [Compound 13] and `Cc1cc(N(C)C)nc(-n2nc(C)cc2C)n1` [Compound 14] cannot be ordered by minimal effective concentration: ≤ 1 µg/mL for the first, ≤ 1 µg/mL for the second.

`CCc1cnc(-n2nc(C)cc2C)nc1` [Compound 21, 1-(5-ethylpyrimidin-2-yl)-3,5-dimethylpyrazole] and `Cc1ccnc(-n2nc(C)cc2C)n1` [Compound 22, 1-(4-methylpyrimidin-2-yl)-3,5-dimethylpyrazole] cannot be ordered by minimal effective concentration: ≤ 1 µg/mL for the first, ≤ 1 µg/mL for the second.

`Cc1cnn(-c2nc(C)cc(C)n2)c1` [Compound 23] and `Cc1cn(-c2nc(C)cc(C)n2)cn1` [Compound 42] cannot be ordered by minimal effective concentration: ≤ 1 µg/mL for the first, ≤ 1 µg/mL for the second.

`Cc1cc(C)nc(-n2ncc3c2/C(=C/c2ccc(Cl)cc2)CC3)n1` [Compound 30] and `Cc1cc(C)nc(-n2ccnc2C)n1` [Compound 41] cannot be ordered by minimal effective concentration: ≤ 1 µg/mL for the first, ≤ 1 µg/mL for the second.

`Cc1cc(C)n(-c2ccccc2)n1` [Compound 33, 1-phenyl-3,5-dimethylpyrazole] and `Cc1cccc(-n2nc(C)cc2C)c1` [Compound 36] cannot be ordered by minimal effective concentration: 1 to 10 µg/mL for the first, ≤ 1 µg/mL for the second.

`Cc1cc(C)n(-c2ccc(C)c(C)c2)n1` [Compound 34] and `Cc1cc(C)cc(-n2nc(C)cc2C)c1` [Compound 35] cannot be ordered by minimal effective concentration: ≤ 1 µg/mL for the first, ≤ 1 µg/mL for the second.

`Cc1ccnc(-n2nc(C)cc2C)c1` [Compound 40, 1-(4-methylpyridin-2-yl)-3,5-dimethylpyrazole] and `Cc1cc(C)nc(N2CC(C)CC(C)C2)n1` (centres unmarked) [Compound 45, N-(4,6-dimethylpyrimidin-2-yl)-3,5-dimethylpiperidine] fall in the same range of minimal effective concentration: 1 to 10 µg/mL for the first, 1 to 10 µg/mL for the second.

Same assay, conditions: minimum concentration at which an inhibitory effect on melanin production was significantly exhibited in melanoma B16 cells

`OC[C@H]1O[C@@H](Oc2ccc(O)cc2)[C@H](O)[C@@H](O)[C@@H]1O` [Arbutin, 4-hydroxyphenyl-β-D-glucopyranoside, reference compound] was tested, and the “Minimum concentration (%)” value was 5 × 10^−4%.
For `CNc1cc(C)nc(-n2nc(C)cc2C)n1` [Compound 7], the “Minimum concentration (%)” value was 3 × 10^−6%.
In the case of `Cc1cc(N(C)C)nc(-n2nc(C)cc2C)n1` [Compound 14], the “Minimum concentration (%)” value is reported as 3 × 10^−6%.
